The source of these data is US10124004B2, “Pyrido[3,4-d]pyrimidine derivative and pharmaceutically acceptable salt thereof” (Teijin Pharma Limited, priority 2015, dated 2018).

In one assay the target is T1, CDK4/cyclin D3 (Homo sapiens, UniProt P11802).
T1 construct: purchased Carna Biosciences, Inc. QS S Assist CDK4/Cyclin D3_FP Kit
The experiment in a line: Human CDK4/cyclin D3 inhibitory activity (QS S Assist CDK4/Cyclin D3_FP Kit, IMAP fluorescence polarization). It counts as biochemical. To be noted: 50% inhibitory concentration against CDK4/cyclin D3, given as class symbol. Put shortly:
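IMAP fluorescence-polarization kinase assay with kit ATP/substrate/metal mix and 12.5 to 25 ng/well enzyme in 20 mM HEPES pH 7.4, 0.01% Tween20, 2 mM DTT. Reaction ran 45 min at room temperature, then binding reagent was added for 30 min in the dark. IC50 was taken from dose-response fits of percent inhibition.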
On the technique in general: Polarisation of emitted light reports the rotation of a fluorescent probe.

For the next assay, the target named is T2, CDK2/cyclin A2 (Homo sapiens, UniProt P24941).
T2 construct: purchased Carna Biosciences, Inc. QS S Assist CDK2/Cyclin A2_FP Kit
In words: Human CDK2/cyclin A2 inhibitory activity (QS S Assist CDK2/Cyclin A2_FP Kit, IMAP fluorescence polarization). The settings on record: 50% inhibitory concentration against CDK2/cyclin A2, given as class symbol. In kind it is biochemical. Put shortly:
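Kinase activity read as fluorescence polarization (485/535 nm) after phosphorylated fluorescent substrate binds IMAP reagent (30 min, RT, dark). Enzyme (2.5 ng/well) reacted 60 min at RT with ATP/substrate/metal in HEPES pH 7.4 buffer with Tween 20 and DTT; no-enzyme wells define 0% activity; IC50 by curve fit.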

In general, IC50 refers to the concentration that gives 50% inhibition.

Structures are written as SMILES. Bounds are passed on as bounds.

T1 sequence (P11802 whole entry): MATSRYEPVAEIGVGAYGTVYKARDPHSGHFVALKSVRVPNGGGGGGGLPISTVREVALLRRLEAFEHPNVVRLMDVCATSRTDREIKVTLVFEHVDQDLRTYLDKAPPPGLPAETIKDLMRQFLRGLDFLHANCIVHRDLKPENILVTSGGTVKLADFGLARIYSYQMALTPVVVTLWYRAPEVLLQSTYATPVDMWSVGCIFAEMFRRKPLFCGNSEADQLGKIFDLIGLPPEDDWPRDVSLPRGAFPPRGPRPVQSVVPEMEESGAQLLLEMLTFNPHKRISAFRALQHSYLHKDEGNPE
T1 sequence (P30281 whole entry partner): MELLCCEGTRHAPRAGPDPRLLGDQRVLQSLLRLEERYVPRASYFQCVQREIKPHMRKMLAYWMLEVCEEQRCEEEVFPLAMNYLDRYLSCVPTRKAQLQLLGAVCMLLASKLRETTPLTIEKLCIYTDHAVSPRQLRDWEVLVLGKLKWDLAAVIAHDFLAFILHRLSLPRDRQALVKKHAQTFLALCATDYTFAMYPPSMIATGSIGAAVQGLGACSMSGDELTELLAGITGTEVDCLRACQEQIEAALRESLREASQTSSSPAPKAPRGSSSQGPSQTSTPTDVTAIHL

Regarding `CO[C@H](C)c1cc2cnc(Nc3ccc(N4CCCC(C(=O)O)C4)cn3)nc2c(NC(C)C)n1` (stereo partly drawn) [Compound 893], the values for the IC50 at CDK4/cyclin D3 and at CDK2/cyclin A2 were 0.01 to 0.1 µM and at least 0.1 µM, respectively.

Take `CO[C@H](C)c1cc2cnc(Nc3ccc(N4CCN(CC(=O)O)CC4=O)cn3)nc2c(NC(C)C)n1` [Compound 894]: the figures for the IC50 against CDK4/cyclin D3 and against CDK2/cyclin A2 were 0.01 to 0.1 µM and at least 0.1 µM, respectively.

Consider `CC(C)Nc1nc([C@@H](C)O)cc2cnc(Nc3ccc(N4CCN(C(C)C(=O)O)CC4=O)cn3)nc12` (stereo partly drawn) [Compound 895], for which the figures for the IC50 on CDK4/cyclin D3 and against CDK2/cyclin A2 were below 0.01 µM and at least 0.1 µM, respectively.

Regarding `CC(C)Nc1nc([C@@H](C)O)cc2cnc(Nc3ccc(N4CCNC(C(F)(F)F)C4)nn3)nc12` (stereo partly drawn) [Compound 896], the IC50 at CDK4/cyclin D3 is below 0.01 µM; on CDK2/cyclin A2, at least 0.1 µM.

For the compound `CO[C@H](C)c1cc2cnc(Nc3ccc(N4CCN(C(C)C(=O)O)CC4=O)cn3)nc2c(NC(C)C)n1` (stereo partly drawn) [Compound 897], the values for the IC50 against CDK4/cyclin D3 and against CDK2/cyclin A2 were 0.01 to 0.1 µM and at least 0.1 µM, respectively.

`CC(C)Nc1nc([C@@H](C)O)cc2cnc(Nc3ccc(N4CCn5ccnc5C4)nn3)nc12` [Compound 898]: the IC50 is below 0.01 µM on CDK4/cyclin D3 and at least 0.1 µM against CDK2/cyclin A2.

Turning to `CC(C)Nc1nc([C@@H](C)O)cc2cnc(Nc3ccc(N4CCN(CC#N)CC4=O)cn3)nc12` [Compound 899], the IC50 on CDK4/cyclin D3 was below 0.01 µM; against CDK2/cyclin A2, at least 0.1 µM.

For the compound `CC(C)Nc1nc([C@@H](C)O)cc2cnc(Nc3ccc(N4CCN(CC(N)=O)CC4=O)cn3)nc12` [Compound 900], the IC50 was below 0.01 µM against CDK4/cyclin D3 and at least 0.1 µM on CDK2/cyclin A2.

Turning to `CC(C)Nc1nc([C@@H](C)O)cc2cnc(Nc3ccc(N4CCN(CC#N)CC4)nn3)nc12` [Compound 901], the results for the IC50 against CDK4/cyclin D3 and against CDK2/cyclin A2 were below 0.01 µM and at least 0.1 µM, respectively.

`CC(C)Nc1nc([C@@H](C)O)cc2cnc(Nc3ccc(N4CCN(C(C)C#N)CC4)nn3)nc12` (stereo partly drawn) [Compound 902]: the IC50 on CDK4/cyclin D3 was below 0.01 µM; against CDK2/cyclin A2, at least 0.1 µM.

For the compound `C[C@@H](O)c1cc2cnc(Nc3ccc(N4CCNCC4=O)cn3)nc2c(NC2(C)CCCOC2)n1` (stereo partly drawn) [Compound 903], the IC50 against CDK4/cyclin D3 was below 0.01 µM; against CDK2/cyclin A2, 0.01 to 0.1 µM.

For `CC(C)Nc1nc([C@@H](C)O)cc2cnc(Nc3ccc4c(n3)CCN(C(=O)CN(C)C)C4)nc12` [Compound 905], the IC50 was below 0.01 µM at CDK4/cyclin D3 and at least 0.1 µM on CDK2/cyclin A2.

`CO[C@H](C)c1cc2cnc(Nc3ccc(N4CCN(CC#N)CC4)nn3)nc2c(NC(C)C)n1` [Compound 906]: the IC50 at CDK4/cyclin D3 is 0.01 to 0.1 µM; on CDK2/cyclin A2, at least 0.1 µM.

Turning to `CO[C@H](C)c1cc2cnc(Nc3ccc(N4CCN(C(C)C#N)CC4)nn3)nc2c(NC(C)C)n1` (stereo partly drawn) [Compound 907], the IC50 is below 0.01 µM at CDK4/cyclin D3 and at least 0.1 µM on CDK2/cyclin A2.

On to `CO[C@H](C)c1cc2cnc(Nc3ccc(N4CCN(CC(N)=O)CC4)nn3)nc2c(NC(C)C)n1` [Compound 908], for which the IC50 at CDK4/cyclin D3 is below 0.01 µM; at CDK2/cyclin A2 it was at least 0.1 µM.

For the compound `CC(=O)c1cc2cnc(Nc3ccc(N4CCNCC4)nn3)nc2c(NC(C)(C)C)n1` [Compound 909], the IC50 against CDK4/cyclin D3 was below 0.01 µM; against CDK2/cyclin A2 it was at least 0.1 µM.

As for `CCCNc1nc(C(C)=O)cc2cnc(Nc3ccc(CN4CCNCC4)cn3)nc12` [Compound 910], the figures for the half-maximal inhibitory concentration (IC50) at CDK4/cyclin D3 and against CDK2/cyclin A2 were 0.01 to 0.1 µM and at least 0.1 µM, respectively.

Consider `CCCCNc1nc(C(C)=O)cc2cnc(Nc3ccc(CN4CCNCC4)cn3)nc12` [Compound 911], for which the IC50 on CDK4/cyclin D3 is below 0.01 µM; on CDK2/cyclin A2, at least 0.1 µM.

For `CC(=O)c1cc2cnc(Nc3ccc(CN4CCNCC4)cn3)nc2c(NCC(C)C)n1` [Compound 912], the values for the IC50 at CDK4/cyclin D3 and against CDK2/cyclin A2 were below 0.01 µM and at least 0.1 µM, respectively.

As to `CO[C@H](C)c1cc2cnc(Nc3ccc(CN4CCN(CCO)CC4)cn3)nc2c(NC(C)(C)CO)n1` [Compound 913], the IC50 against CDK4/cyclin D3 is below 0.01 µM; against CDK2/cyclin A2, at least 0.1 µM.

Regarding `CO[C@H](C)c1cc2cnc(Nc3ccc(CN4CCN(CCO)CC4)cn3)nc2c(N[C@H](C)CO)n1` [Compound 914], the IC50 is below 0.01 µM against CDK4/cyclin D3 and at least 0.1 µM at CDK2/cyclin A2.
